Data from patent US20180028425A1, “COSMETIC COMPOSITIONS OF UV FILTERS” (3V Sigma S.P.A., priority 2016, published 2018).

Assay: UV-A/UV-B ratio of the UV filter compounds
Type: physicochemical
Description: Typically, the numerical UV-A/UV-B ratio of these compounds, defined as the ratio of the intensity of the radiation absorbed between 320 nm and 400 nm (UVA fraction) to that absorbed between 290 nm and 320 nm (UVB fraction), is greater than 0.20, preferably greater than 0.30, whereas in the analogous triazine compounds with a 4-aminobenzoate or 4-aminobenzamide substituent different from the substituents described in Formula (IV), it is below about 0.14.
The UVA:UVB ratio is the ratio between the intensity of the radiation absorbed between 320 nm and 400 nm (UVA fraction) and that absorbed between 290 nm and 320 nm (UVB fraction).

Row | UVA fraction compared with known triazine analogues (diethylhexyl butamido triazone, ethylhexyl triazone) | SMILES
1 | at least twice as high | CCCCC(CC)COC(=O)c1ccc(NC(=O)c2ccc(Nc3nc(Nc4ccc(C(=O)NC(C)(C)C)cc4)nc(Nc4ccc(C(=O)OCC(CC)CCCC)cc4)n3)cc2)cc1 (stereo not drawn) [Compound (VI)]
2 | at least twice as high | CCCCC(CC)COC(=O)c1ccc(NC(=O)c2ccc(Nc3nc(Nc4ccc(C(=O)Nc5ccc(C(=O)OCC(CC)CCCC)cc5)cc4)nc(Nc4ccc(C(=O)NC(C)(C)C)cc4)n3)cc2)cc1 (stereo not drawn) [Compound (V)]
3 | at least twice as high | CCCCC(CC)COC(=O)c1ccc(NC(=O)c2ccc(Nc3nc(Nc4ccc(C(=O)OCC(CC)CCCC)cc4)nc(Nc4ccc(C(=O)OCC(CC)CCCC)cc4)n3)cc2)cc1 (stereo not drawn) [Compound (VII)]
